From patent US20230027361A1, “METTL3 MODULATORS” (priority 2019, published 2023)
Read-outs that look alike come from different tables or passages of the source.

Legend:
METTL3/METTL14 = METTL3/METTL14 (Homo sapiens, UniProt Q86U44); test: METTL3-14 Standard Enzyme Assay (METTL3 biochemical assay)
Outline: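 METTL3/METTL14 at 2.5 nM, preincubated 5 min with compound in 20 mM HEPES pH 7.5, 50 mM KCl, 250 μM MgCl2, 1 mM DTT, at ambient temperature. Started with 100 nM 3′-biotinylated RNA and 100 nM ³H-SAM, quenched at 30 min with 15 μM cold SAM. Methylation read by scintillation on streptavidin flashplates.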

METTL1/WDR4 = METTL1/WDR4 (Homo sapiens, UniProt Q9UBP6); test: METTL1 Assay (METTL1 biochemical assay)
METTL1/WDR4, sequence (Q9UBP6 whole entry, species assumed): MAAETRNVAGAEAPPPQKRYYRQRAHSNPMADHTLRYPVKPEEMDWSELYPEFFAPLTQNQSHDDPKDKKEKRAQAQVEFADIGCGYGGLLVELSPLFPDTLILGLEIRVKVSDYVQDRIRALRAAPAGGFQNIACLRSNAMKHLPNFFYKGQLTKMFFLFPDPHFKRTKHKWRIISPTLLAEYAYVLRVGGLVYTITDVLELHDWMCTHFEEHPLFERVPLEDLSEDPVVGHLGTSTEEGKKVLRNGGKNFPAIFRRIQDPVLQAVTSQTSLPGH
METTL1/WDR4, sequence (P57081 whole entry partner, species assumed): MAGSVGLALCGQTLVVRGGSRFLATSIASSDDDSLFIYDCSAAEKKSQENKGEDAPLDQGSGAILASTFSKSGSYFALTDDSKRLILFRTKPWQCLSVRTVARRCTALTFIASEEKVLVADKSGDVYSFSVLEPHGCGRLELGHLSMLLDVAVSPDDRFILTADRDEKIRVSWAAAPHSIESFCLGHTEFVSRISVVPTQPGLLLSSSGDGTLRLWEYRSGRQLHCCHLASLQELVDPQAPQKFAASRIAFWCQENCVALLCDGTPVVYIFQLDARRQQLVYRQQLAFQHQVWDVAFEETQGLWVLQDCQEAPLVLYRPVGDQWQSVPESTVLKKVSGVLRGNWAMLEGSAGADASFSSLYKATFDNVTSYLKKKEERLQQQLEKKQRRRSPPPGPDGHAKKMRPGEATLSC
Outline: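 Radiometric methyltransfer by METTL1/WDR4 (6.25 nM f.c., 5 min preincubation) at ambient temperature in HEPES pH 7.5, KCl, MgCl2, DTT; started with 25 nM 3′-biotinylated RNA and 60 nM 3H-SAM, run 20 min, quenched with 15 μM cold SAM. Product captured on streptavidin flashplates (2 h, 25° C), counted by scintillation.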

METTL16 = target: T1, METTL16 (Homo sapiens, UniProt Q86W50); test: METTL16 Assay (METTL16 biochemical assay); conditions: read-out: METTL16 IC50
T1 sequence (Q86W50 1-562): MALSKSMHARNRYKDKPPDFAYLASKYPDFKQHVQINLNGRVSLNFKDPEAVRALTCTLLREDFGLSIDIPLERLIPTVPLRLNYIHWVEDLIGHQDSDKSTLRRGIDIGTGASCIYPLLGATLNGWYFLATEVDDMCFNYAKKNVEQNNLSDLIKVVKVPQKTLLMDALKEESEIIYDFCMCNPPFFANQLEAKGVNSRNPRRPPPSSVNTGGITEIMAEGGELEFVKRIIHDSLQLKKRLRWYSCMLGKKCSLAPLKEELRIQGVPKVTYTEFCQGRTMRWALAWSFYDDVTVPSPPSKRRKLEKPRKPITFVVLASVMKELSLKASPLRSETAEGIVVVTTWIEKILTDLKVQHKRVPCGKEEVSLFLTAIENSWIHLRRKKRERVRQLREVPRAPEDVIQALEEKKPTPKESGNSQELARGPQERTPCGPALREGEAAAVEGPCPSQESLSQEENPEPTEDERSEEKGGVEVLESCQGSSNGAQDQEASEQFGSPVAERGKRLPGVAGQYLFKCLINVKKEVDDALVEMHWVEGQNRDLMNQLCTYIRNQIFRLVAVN
Procedure: Assays were performed in a 25 μl-volume in 384-well V-bottom polypropylene microplates (Greiner Bio-One, cat. No. 781280) at ambient temperature. Optimized 1× assay buffer was 20 mM HEPES pH 7.5, 50 mM KCl, 1 mM DTT, 0.01% Tween, 0.01% BSG, 0.004 U/μl RNAseOUT (cat. No. 10777019, ThermoFisher Scientific, Waltham, Mass.). For compound screening METTL16 (final concentration, f.c.=100 nM) was added using a Multidrop Combi (ThermoFisher Scientific, Waltham, Mass.) and preincubated for 5 min. Reactions were started by adding 3′ biotinylated RNA ([…]-biotin) (f.c.=50 nM), 3H-SAM (f.c.=200 nM) and non-radiolabeled SAM (f.c.=800 nM) substrates. Reactions proceeded for 20 minutes and were quenched with excess non-radioactive SAM (f.c.=100 μM). The reactions were then transferred to streptavidin-coated flashplates and incubated for 2 hours at 25° C. Following two washing cycles with 0.1% Tween-20, the plates were sealed and read on a TopCount (PerkinElmer, Waltham, Mass.) plate-based scintillation counter. For determination of kinetic parameters, reaction times were optimized so that measurements were taken during the initial velocity phase of the reaction.

PRMT5-MEP50 = PRMT5-MEP50 (Homo sapiens, UniProt O14744); test: PRMT5 Assay (PRMT5 biochemical assay)
PRMT5-MEP50, sequence (O14744 whole entry): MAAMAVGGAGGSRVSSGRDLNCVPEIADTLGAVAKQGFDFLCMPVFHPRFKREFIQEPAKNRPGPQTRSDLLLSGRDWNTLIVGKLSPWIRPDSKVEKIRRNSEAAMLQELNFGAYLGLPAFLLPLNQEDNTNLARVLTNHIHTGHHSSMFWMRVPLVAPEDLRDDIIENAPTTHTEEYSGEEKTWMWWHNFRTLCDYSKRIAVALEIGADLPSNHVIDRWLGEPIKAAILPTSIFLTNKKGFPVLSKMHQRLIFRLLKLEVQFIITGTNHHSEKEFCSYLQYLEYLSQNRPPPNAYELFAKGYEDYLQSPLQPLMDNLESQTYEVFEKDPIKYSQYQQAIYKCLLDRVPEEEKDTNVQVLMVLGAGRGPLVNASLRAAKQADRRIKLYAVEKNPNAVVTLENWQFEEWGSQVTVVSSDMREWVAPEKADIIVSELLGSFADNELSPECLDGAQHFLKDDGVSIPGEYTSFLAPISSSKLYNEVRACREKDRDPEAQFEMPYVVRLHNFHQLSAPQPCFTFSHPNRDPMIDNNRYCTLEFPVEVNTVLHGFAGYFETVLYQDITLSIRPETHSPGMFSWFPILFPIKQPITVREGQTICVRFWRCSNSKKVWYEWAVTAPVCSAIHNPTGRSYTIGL
PRMT5-MEP50, sequence (Q9BQA1 whole entry partner): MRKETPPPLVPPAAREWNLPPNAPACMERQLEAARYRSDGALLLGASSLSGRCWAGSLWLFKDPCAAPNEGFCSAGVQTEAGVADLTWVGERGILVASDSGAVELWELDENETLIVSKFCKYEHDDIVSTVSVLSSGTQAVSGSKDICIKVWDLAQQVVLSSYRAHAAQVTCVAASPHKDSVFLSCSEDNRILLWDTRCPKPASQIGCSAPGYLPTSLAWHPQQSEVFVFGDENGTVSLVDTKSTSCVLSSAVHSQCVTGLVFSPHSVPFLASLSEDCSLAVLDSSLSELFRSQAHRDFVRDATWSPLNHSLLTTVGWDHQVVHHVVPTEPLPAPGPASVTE
Outline: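 PRMT5-MEP50 (2.5 nM final) preincubated 5 min with compound, then reacted 60 min at ambient temperature with 100 nM biotinylated N-acetyl histone H4 peptide and 250 nM 3H-SAM in 20 mM Tris-HCl pH 8.0, 1 mM DTT, 0.01% Tween. Quenched with 15 μM cold SAM; methylated peptide captured on streptavidin flashplates, scintillation counted.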

MOLM-13 cells [1] = test: MOLM-13 48 Hour Cell Proliferation Assay; assay type: cell-based; conditions: Homo sapiens
Procedure: MOLM-13 (DSMZ) cells were seeded at 1000 cells per well in a volume of 44 μL in a Falcon 384-well tissue culture treated clear bottom microplate in RPMI 1640 media containing 10% fetal bovine serum using a Multidrop Combi (ThermoFisher Scientific). Cells were incubated overnight at 37° C. in a humidified tissue culture incubator. The Mosquito® HTS Liquid Handler was used to make a compound/media intermediate plate by aliquoting 1 μL of compound from the initial compound dilution plate (concentrations ranging from 10.0 mM to 38.0 nM in 100% DMSO) into a V bottom 384-well screen matrix plate containing 49 μL of media containing the appropriate serum (50-fold dilution, 2% DMSO). The Apricot liquid handling system was used to transfer 6.2 μL compounds from the intermediate plate into the Falcon 384-well tissue culture plate containing 44 μL cells (10-point, 4-fold dilution spanning concentrations 25.0 μM to […], 0.25% DMSO final), and placed in a humidified tissue culture incubator at 37° C. After 48 hours, 25 μL of Cell Titer-Glo reagent (Promega) was added to each well using a Multidrop Combi. The plate was protected from light and placed on an IKA plate shaker for at 300 rpm for 10 minutes at room temperature. The plate was read on an EnVision plate reader (Perkin Elmer) using the Ultra Sensitive Luminescence protocol. Data analysis was performed by normalizing the raw luminescence units to an average of the positive control values for staurosporine (100% cell death) and the negative control values for DMSO (0% cell death). An IC50 was calculated using a 4-parameter logistic nonlinear regression model in GraphPad Prism.

MOLM-13 cells [2] = test: MOLM-13 96 Hour Cell Proliferation Assay; assay type: cell-based; conditions: Homo sapiens
Procedure: MOLM-13 (DSMZ) cells were seeded at 600 cells per well in a volume of 44 μL in a Greiner Bio-One CELLSTAR™ 384 Well Polystyrene Cell Culture clear bottom microplate in RPMI 1640 media containing 10% fetal bovine serum using a Multidrop Combi (ThermoFisher Scientific). Cells were incubated overnight at 37° C. in a humidified tissue culture incubator. To prevent evaporation or to reduce edge effect, add 50 μL or more H2O to an empty plate, cover, and place on top of the cell plates. The Mosquito® HTS Liquid Handler was used to make a compound/media intermediate plate by aliquoting 1 μL of compound from the initial compound dilution plate (concentrations ranging from 10.0 mM to 38.0 nM in 100% DMSO) into Bio-One 384-well polypropylene conical bottom microplate containing 49 μL of media containing the appropriate serum (50-fold dilution, 2% DMSO, compound concentrations ranging from 200.0 μM and […]). The Apricot liquid handling system was used to transfer 6.2 μL compounds from the intermediate plate into the seeding plate containing 44 μL cells (8-fold dilution spanning concentrations 25.0 μM to […], 0.25% DMSO final), and placed in a humidified tissue culture incubator at 37° C. After 96 hours, 25 μL of Cell Titer-Glo reagent (Promega) was added to each well using an Integra liquid handling system. The plate was protected from light using TopSeal-A (Black) film over the entire plate, added White Bottom seal film on the bottom of the entire plate for a better reading on the Envision, and placed on an IKA plate shaker for at 300 rpm for 10 minutes at room temperature. The plate was read on an EnVision plate reader (Perkin Elmer) using the Ultra Sensitive Luminescence protocol. Data analysis was performed by normalizing the raw luminescence units to an average of the positive control values for staurosporine (100% cell death) and the negative control values for DMSO (0% cell death). An IC50 was calculated using a 4-parameter logistic nonlinear regression model in GraphPad Prism.

[3] = METTL3 biochemical assay, read-out: METTL3 IC50
[4] = PRMT5 biochemical assay, read-out: PRMT5 IC50
[5] = read-out: METTL1 IC50; METTL1 biochemical assay

METTL3/METTL14, sequence (Q86U44 whole entry, species assumed): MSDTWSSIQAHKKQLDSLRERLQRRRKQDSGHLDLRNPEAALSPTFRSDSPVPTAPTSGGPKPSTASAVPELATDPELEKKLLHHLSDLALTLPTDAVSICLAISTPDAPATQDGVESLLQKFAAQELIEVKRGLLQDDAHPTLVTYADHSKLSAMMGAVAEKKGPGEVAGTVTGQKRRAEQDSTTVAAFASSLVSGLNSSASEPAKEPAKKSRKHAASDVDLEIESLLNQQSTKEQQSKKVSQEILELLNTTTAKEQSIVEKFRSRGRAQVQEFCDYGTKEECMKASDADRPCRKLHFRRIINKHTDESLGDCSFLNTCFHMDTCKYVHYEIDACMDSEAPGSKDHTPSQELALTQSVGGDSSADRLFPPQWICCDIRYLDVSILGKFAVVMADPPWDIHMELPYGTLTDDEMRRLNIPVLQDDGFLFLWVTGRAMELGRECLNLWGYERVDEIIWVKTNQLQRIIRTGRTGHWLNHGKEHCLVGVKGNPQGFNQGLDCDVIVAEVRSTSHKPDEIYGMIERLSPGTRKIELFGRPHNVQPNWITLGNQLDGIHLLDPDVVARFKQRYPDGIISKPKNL
METTL3/METTL14, sequence (Q9HCE5 whole entry partner, species assumed): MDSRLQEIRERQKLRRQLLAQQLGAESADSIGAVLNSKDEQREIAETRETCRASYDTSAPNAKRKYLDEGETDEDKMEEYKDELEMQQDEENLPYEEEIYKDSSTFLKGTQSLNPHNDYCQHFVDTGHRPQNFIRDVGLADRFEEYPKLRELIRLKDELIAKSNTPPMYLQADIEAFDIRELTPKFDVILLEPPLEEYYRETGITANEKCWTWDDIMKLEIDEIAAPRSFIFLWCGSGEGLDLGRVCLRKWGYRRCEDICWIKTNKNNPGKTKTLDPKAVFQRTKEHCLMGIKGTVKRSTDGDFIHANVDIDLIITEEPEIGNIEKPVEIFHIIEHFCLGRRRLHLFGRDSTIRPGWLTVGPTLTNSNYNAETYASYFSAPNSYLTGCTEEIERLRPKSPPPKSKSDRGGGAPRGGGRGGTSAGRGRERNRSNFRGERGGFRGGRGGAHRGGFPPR

| SMILES | IC50 (METTL3/METTL14; [3]) | IC50 (METTL16) | IC50 (PRMT5-MEP50; [4]) | also measured |
| --- | --- | --- | --- | --- |
| Cc1cn2ccc(CC[C@H]3C[C@@H](n4ccc5c(N)ncnc54)[C@H](O)[C@@H]3O)cc2n1 [I-84] | > 1000 nM | > 1000 nM | < 10 nM | IC50 (METTL1/WDR4; METTL1 biochemical assay; read-out: METTL1 IC50): > 1000 nM |
| Nc1cc(C2CC2)nc2cc(OC[C@H]3O[C@@H](n4cc(Br)c5c(N)ncnc54)[C@@H](F)[C@@H]3O)ccc12 [I-14] | 10 to 100 nM | > 1000 nM | 100 to 1000 nM |  |
| Nc1ncnc2c1c(Br)cn2[C@@H]1O[C@H](COc2ccc3ccc(N4CCCC4)nc3c2)[C@@H](O)[C@H]1O [I-72] | 10 to 100 nM | > 1000 nM | 10 to 100 nM | IC50 (METTL1/WDR4; [5]): > 1000 nM |
| Nc1ccc2ccc(CC[C@H]3C[C@@H](n4cc(C5CCCC5)c5c(N)ncnc54)[C@H](O)[C@@H]3O)cc2n1 [I-60] | 10 to 100 nM |  | < 10 nM | IC50 (METTL1/WDR4; [5]): > 1000 nM; IC50 (MOLM-13 cells [1]): 1000 to 10000 nM; IC50 (MOLM-13 cells [2]; MOLM-13, 96 h): < 1000 nM |
| CNc1ccc2ccc(OC[C@H]3O[C@@H](n4cc(Br)c5c(N)nccc54)[C@@H](F)[C@@H]3O)cc2n1 [I-41] | 100 to 1000 nM | > 1000 nM | 100 to 1000 nM | IC50 (METTL1/WDR4; [5]): > 1000 nM |
| Nc1nc2ccc(OC[C@H]3O[C@@H](n4cc(Br)c5c(N)ncnc54)[C@@H](F)[C@@H]3O)cc2[nH]1 [I-21] | 100 to 1000 nM | > 1000 nM | 10 to 100 nM | IC50 (METTL1/WDR4; [5]): > 1000 nM |
| Cc1cc(N)c2ccc(OC[C@H]3O[C@@H](n4cc(Br)c5c(N)ncnc54)[C@@H](F)[C@@H]3O)cc2n1 [I-27] | 10 to 100 nM | > 1000 nM | 100 to 1000 nM |  |
| CNc1ccc2ccc(OC[C@H]3O[C@@H](n4cc(C5CCN(C)C5)c5c(N)ncnc54)[C@@H](F)[C@@H]3O)cc2n1 (some centres unmarked) [I-17] | 10 to 100 nM | > 1000 nM | 100 to 1000 nM |  |
| Cc1cc(N)c2ccc(OC[C@H]3O[C@@H](n4cc(C5CCCC5)c5c(N)ncnc54)[C@H](O)[C@@H]3O)cc2n1 [I-16] | 10 to 100 nM | > 1000 nM | 10 to 100 nM |  |
| CNc1ccc2ccc(OC[C@H]3O[C@@H](n4cc(-c5cnn(C)c5)c5c(N)ncnc54)[C@@H](F)[C@@H]3O)cc2n1 [I-11] |  | > 1000 nM |  | IC50 (METTL3/METTL14; read-out: METTL3 IC50, METTL3 biochemical assay): 10 to 100 nM; IC50 (PRMT5-MEP50; read-out: PRMT5 IC50, PRMT5 biochemical assay): 100 to 1000 nM |
| Nc1ncnc2c1c(CO)cn2[C@@H]1O[C@H](COc2ccc3ccc(N4CCC4)nc3c2)[C@@H](O)[C@@H]1F [I-163] | < 10 nM |  | > 1000 nM | IC50 (MOLM-13 cells [1]): 1000 to 10000 nM; IC50 (MOLM-13 cells [2]; MOLM-13, 96 h): 1000 to 10000 nM |
| CCNc1ccc2ccc(OC[C@H]3C[C@@H](n4ccc5c(N)ncnc54)[C@H](O)[C@@H]3O)cc2n1 [I-81] | 10 to 100 nM | > 1000 nM | < 10 nM |  |
| Nc1ncnc2c1c(-n1ccc(C(F)(F)F)n1)cn2[C@H]1C[C@H](O)[C@@H](COc2ccc3ccc(N4CCC4)nc3c2)O1 [I-178] |  |  |  | IC50 (METTL3/METTL14): < 10 nM; IC50 (PRMT5-MEP50): > 1000 nM; IC50 (MOLM-13 cells [1]): 1000 to 10000 nM; IC50 (MOLM-13 cells [2]): 1000 to 10000 nM |
| CCNc1ccc2ccc(CC[C@H]3O[C@@H](n4ccc5c(N)ncnc54)[C@H](O)[C@@H]3O)cc2n1 [I-90] | 10 to 100 nM | > 1000 nM | < 10 nM |  |
| Nc1ncnc2c1ccn2[C@H]1C[C@H](O)[C@@H](COc2ccc3ccc(N4CCC4)nc3c2)O1 [I-165] | < 10 nM |  | > 1000 nM | IC50 (MOLM-13 cells [1]): > 10000 nM; IC50 (MOLM-13 cells [2]; MOLM-13, 96 h): 1000 to 10000 nM |
| CNc1ccc2ccc(CC[C@H]3C[C@@H](n4ccc5c(N)ncnc54)[C@H](O)[C@@H]3O)cc2n1 [I-123] | < 10 nM |  | < 10 nM | IC50 (METTL1/WDR4; [5]): > 1000 nM; IC50 (MOLM-13 cells [1]): > 10000 nM; IC50 (MOLM-13 cells [2]; MOLM-13, 96 h): < 1000 nM |
| CCc1cc(N)c2ccc(OC[C@H]3O[C@@H](n4cc(Br)c5c(N)ncnc54)[C@@H](F)[C@@H]3O)cc2n1 [I-18] | 10 to 100 nM | > 1000 nM | 100 to 1000 nM |  |
